Where two headings read alike, the source gives them in different places.
Columns and labels:
Assay type in all cases: cell-based
Colo205 = assay: Proliferation inhibition test, Wnt mutant cell line Colo205; conditions: Colo205, 96 h culture with compound, read-out: Antiproliferation IC50 Colo205
Text: (§1) The cell lines used in the experiment are Colo205, H929, HepG2, and DU4475, which have sustained activation of the Wnt pathway and whose proliferation is Wnt pathway-dependent. On the other hand, RKO cell line, in which normally the Wnt pathway is not activated and whose proliferation is not Wnt pathway-dependent, was used as a control cell line. This was done to determine whether the inhibitory effect of the compound of the present disclosure on Wnt-dependent proliferation is due to other nonspecific toxicity.
(§2) Colo205, H929, DU4475, HepG2 and RKO cell lines cultured in their respective culture media were treated in the logarithmic growth phase, and the cells were collected and prepared into a uniform cell suspension of known concentration, and then added to a 96-well cell culture plate so that each well contained 1000-4000 cells. Place in a 5% CO2 cell culture incubator and culture at 37° C. for 20-24 h. On the second day, add the completely dissolved, 3-fold gradient dilution compound to each cell culture well to make the final maximum concentration in the cell culture well 10 uM, and continue to culture for 96 h. This test uses Promega's cell activity detection test for detection. The more the cells proliferate, the stronger the final signal intensity. The detection instrument is SpectraMax, full wavelength mode. The wells with only DMSO added were used as positive control wells, and the wells without cells inoculated were used as negative control wells.

HepG2 = assay: Proliferation inhibition test, Wnt mutant cell line HepG2; conditions: HepG2, 96 h culture with compound, read-out: Antiproliferation IC50 HepG2
Text: as §1, §2

H929 = assay: Proliferation inhibition test, Wnt mutant cell line H929; conditions: Homo sapiens, NCI-H929, 96 h, H929, 96 h culture with compound; read-out: Antiproliferation IC50 H929
Text: as §1, §2

[1] = tested on: Colo205-LUC-TCF/LEF reporter gene; assay: Colo205-LUC-TCF/LEF M1 reporter cell line luciferase inhibition; conditions: 4 hours incubation, firefly luciferase signal
Method: Colo205 cell line (Cell Bank of Chinese Academy of Sciences, Cat #TCHul02) was purchased from the Cell Bank of Chinese Academy of Sciences. After expansion and subculture, during the exponential growth phase, luciferase reporter plasmid (Promega) driven by TCF/LEF transcription factor was transfected by lipo3000 liposome transfection. The plasmid carries a resistance gene for resistance screening. Transfection was carried out in 10 cm culture dishes using conventional complete medium without resistance. After 2 days, the medium with resistance was replaced, and the culture was continued. After that, the medium with resistance was replaced every 2 days, and the suspended cells were discarded. The original medium was centrifuged to remove cells and debris and retained as an adaptive medium. When the cells covered the culture dish, the cells were digested, counted, and passaged in a 96-well plate, so that the average number of cells contained in each well was 1.5/well, and the adaptive medium was used for passage. The rest of the cells were frozen. After passage, culture for 4 hours to allow the cells to adhere to the wall, and then observe the number of cells in each well under a microscope. Wells with only 1 cell per well were labeled as monoclonal wells. Afterwards, normal culture was performed, and the culture medium was replaced every 2 days, and observed. There are wells where the monoclonal cells continue to grow in the early stage, and they are labeled twice, and can be replaced with normal medium with resistance. When a monoclonal well was overgrown with a 96-well plate, it is digested and passaged to a 24-well culture plate. After the 24-well plate is overgrown, it is passaged to a 96-well plate and a 6-well plate. The cells in a 96-well plate are at least 6 wells, of which 3 wells were added with known Wnt inhibitors, and the other 3 wells were not treated. After 24 hours, the cells in the 96-well plate were added with a fluorescence detection reagent to detect the fluorescence intensity. Cell lines with fluorescent expression when not treated and decreased fluorescent light after inhibition were selected and further cultured. The Colo205-LUC-TCF/LEF-M1 cell line is one of the cell lines screened above. Its growth curve, cell shape, and cell growth state are similar to those of the original Colo205 cells, and the ratio of the fluorescent signals of the inhibitor-treated and untreated cells is the largest among all cell lines, and the ratio can reach 4-5 times when inhibited at 4 hours, which was completely suitable for the screening of Wnt inhibitors in the later stage.
The Colo205-LUC-TCF/LEF M1 cell line is a reporter tool cell stably transfected with the pGL4.49-LUC2-TCF/LEF vector. The β-catenin Wnt pathway is continuously activated. After adding the inhibitor, the Wnt pathway is inhibited. The expression of firefly luciferase regulated by the TCF/LEF cis-element decreased, and after adding the detection substrate, the detected light signal decreased accordingly, so as to detect the inhibitory effect of the compound.
To a 96-well cell culture plate, add 100 uL of the compound with a maximum concentration of 20 uM to each well, and make a 3-fold serial dilution of the compound concentration. Then 10,000 colo205 cells stably transfected with the reporter gene and 100 uL medium were inoculated into each well, and corresponding positive and negative control wells were made at the same time. Put the cells in a 5% CO2 incubator and incubate at 37° C. for 4 hours. After 4 hours, remove the culture medium, add 100 μL of reagent (Promega) containing the corresponding firefly luciferase substrate to each well, and measure the activity of luciferase reporter gene. Luminescence intensity was read with SpectraMax in full wavelength mode. […]

RKO = assay: Proliferation inhibition test, non-Wnt mutant control cell line RKO; conditions: Homo sapiens; RKO (Wnt pathway not activated, control), 96 h culture, maximum concentration 10 uM; read-out: Antiproliferation IC50 RKO
Text: as §1, §2

DU4475 = assay: Proliferation inhibition test, Wnt mutant cell line DU4475; conditions: Homo sapiens, DU-4475, 96 h, DU4475, 96 h culture with compound; read-out: Antiproliferation IC50 DU4475
Text: as §1, §2

Structure (SMILES)	IC50 (Colo205; Homo sapiens, COLO 205, 96 h) [nM]	IC50 (HepG2; Homo sapiens, HepG2, 96 h) [nM]	IC50 (H929) [nM]	IC50 ([1]; 4 h) [nM]	IC50 (Colo205) [nM]	IC50 (HepG2) [nM]	IC50 [1] [nM]	IC50 (RKO) [nM]	IC50 (DU4475) [nM]
[2H]C([2H])([2H])N1c2nc(NCc3ccc(Oc4ccc(C(F)(F)F)nc4Cl)nc3)nc3c2N(CCC3)C(=O)[C@@H]1CO [Compound 1, (S)-2-(((6-((2-chloro-6-(trifluoromethyl)pyridin-3-yl)oxy)pyridin-3-yl)methyl)amino)-5-(hydroxymethyl)-4-(methyl-d3)-4,5,9,10-tetrahydro-6H,8H-pyrido[3,2,1-de]pteridin-6-one]	7.81	1.45	40.3	15.5				> 10000	3.17
CN1c2nc(NCc3ccc(Oc4ccc(C(F)(F)F)nc4Cl)nc3)nc3c2N(CCC3)C(=O)[C@@H]1CO [Compound 2, (S)-2-(((6-((2-chloro-6-(trifluoromethyl)pyridin-3-yl)oxy)pyridin-3-yl)methyl)amino)-5-(hydroxymethyl)-4-methyl-4,5,9,10-tetrahydro-6H,8H-pyrido[3,2,1-de]pteridin-6-one]	8.67	1.68	47.7	22.5				> 10000	5.05
[2H]C([2H])([2H])N1c2nc(NCc3ccc(Oc4cnc(C(F)(F)F)nc4C)nc3)nc3c2N(CCC3)C(=O)[C@@H]1CO [Compound 4, (S)-5-(Hydroxymethyl)-4-(methyl-d3)-2-(((6-((4-methyl-2-(trifluoromethyl)pyrimidin-5-yl)oxy)pyridin-3-yl)methyl)amino)-4,5,9,10-tetrahydro-6H,8H-pyrido[3,2,1-de]pteridin-6-one]	42.6	89.7	278	66.3				> 10000	25.8
Cc1nc(C(F)(F)F)ncc1Oc1ccc(CNc2nc3c4c(n2)N(C)[C@@](C)([C@H](C)O)C(=O)N4CCC3)cn1 [Compound 6, (S)-5-((S)-1-hydroxyethyl)-4,5-dimethyl-2-(((6-((4-methyl-2-(trifluoromethyl)pyrimidin-5-yl)oxy)pyridin-3-yl)methyl)amino)-4,5,9,10-tetrahydro-6H,8H-pyrido[3,2,1-de]pteridin-6-one]			303		9.05	109	65.6	> 10000	47.4
[2H]C([2H])([2H])N1c2nc(NCc3ccc(Oc4cnc(C(F)(F)F)nc4CC)nc3)nc3c2N(CCC3)C(=O)[C@]1(C)CO [Compound 7, (S)-2-(((6-((4-ethyl-2-(trifluoromethyl)pyrimidin-5-yl)oxy)pyridin-3-yl)methyl)amino)-5-(hydroxymethyl)-5-methyl-4-(methyl-d3)-4,5,9,10-tetrahydro-6H,8H-pyrido[3,2,1-de]pteridin-6-one]	5.54	15.6	52.2	10.7				> 10000	3.59
[2H]C([2H])([2H])N1c2nc(NCc3ccc(Oc4cnc(C(F)(F)F)nc4CC)nc3)nc3c2N(CCC3)C(=O)[C@@H]1CO [Compound 8, (S)-2-(((6-((4-ethyl-2-(trifluoromethyl)pyrimidin-5-yl)oxy)pyridin-3-yl)methyl)amino)-5-(hydroxymethyl)-4-(methyl-d3)-4,5,9,10-tetrahydro-6H,8H-pyrido[3,2,1-de]pteridin-6-one]	24.2	35.1	86.9	32				> 10000	9.6
CCc1nc(C(F)(F)F)ncc1Oc1ccc(CNc2nc3c4c(n2)N(C)[C@@](C)([C@H](C)O)C(=O)N4CCC3)cn1 [Compound 14, (S)-2-(((6-((4-ethyl-2-(trifluoromethyl)pyrimidin-5-yl)oxy)pyridin-3-yl)methyl)amino)-5-((S)-1-hydroxyethyl)-4,5-dimethyl-4,5,9,10-tetrahydro-6H,8H-pyrido[3,2,1-de]pteridin-6-one]	70.3	79		35.2				> 10000	
CN(C)c1nc(C(F)(F)F)ccc1Oc1ccc(CNc2nc3c4c(n2)N(C)[C@@](C)(CO)C(=O)N4CCC3)cn1 [Compound 15, (S)-2-(((6-((2-(dimethylamino)-6-(trifluoromethyl)pyridin-3-yl)oxy)pyridin-3-yl)methyl)amino)-5-(hydroxymethyl)-4,5-dimethyl-4,5,9,10-tetrahydro-6H,8H-pyrido[3,2,1-de]pteridin-6-one]	1.35	1.3		< 0.1				> 10000	

More lines, in order of falling IC50 (Colo205; Homo sapiens, COLO 205, 96 h), values ahead:

IC50 (Colo205; Homo sapiens, COLO 205, 96 h) [nM]	IC50 (HepG2; Homo sapiens, HepG2, 96 h) [nM]	IC50 (H929) [nM]	IC50 ([1]; 4 h) [nM]	IC50 (Colo205) [nM]	IC50 (HepG2) [nM]	IC50 [1] [nM]	Structure (SMILES)	IC50 (RKO) [nM]	IC50 (DU4475) [nM]
20.6	33.5	160	50.9				[2H]C([2H])([2H])N1c2nc(NCc3ccc(Oc4cnc(C(F)(F)F)nc4C)nc3)nc3c2N(CCC3)C(=O)[C@]1(C)CO [Compound 5, (S)-5-(Hydroxymethyl)-5-methyl-4-(methyl-d3)-2-(((6-((4-methyl-2-(trifluoromethyl)pyrimidin-5-yl)oxy)pyridin-3-yl)methyl)amino)-4,5,9,10-tetrahydro-6H,8H-pyrido[3,2,1-de]pteridin-6-one]	> 10000	14.4
8.43	11.3	36.4	13.8				[2H]C([2H])([2H])N1c2nc(NCc3ccc(Oc4cnc(C(F)(F)F)nc4C4CC4)nc3)nc3c2N(CCC3)C(=O)[C@@H]1CO [Compound 9, (S)-2-(((6-((4-cyclopropyl-2-(trifluoromethyl)pyrimidin-5-yl)oxy)pyridin-3-yl)methyl)amino)-5-(hydroxymethyl)-4-(methyl-d3)-4,5,9,10-tetrahydro-6H,8H-pyrido[3,2,1-de]pteridin-6-one]	> 10000	0.46
4.48	2.17	20	15.6				[2H]C([2H])([2H])N1c2nc(NCc3ccc(Oc4ccc(C(F)(F)F)nc4Cl)nc3)nc3c2N(CCC3)C(=O)[C@]1(C)CO [Compound 3, (S)-2-(((6-((2-chloro-6-(trifluoromethyl)pyridin-3-yl)oxy)pyridin-3-yl)methyl)amino)-5-(hydroxymethyl)-5-methyl-4-(methyl-d3)-4,5,9,10-tetrahydro-6H,8H-pyrido[3,2,1-de]pteridin-6-one]	> 10000	3.06
